Results as given in paper PMC11576395 (iScience, 2024).
Like-named read-outs stand apart in the source and are kept apart here.

Key:
Test in all cases: thioflavin T aggregation assay of recombinant protein, […] compound
Assay type in all cases: biochemical
Settings in all cases: read-out: % inhibition at 50 μM
α-synuclein [1] = biological target: T1, α-synuclein (Homo sapiens, UniProt P37840)
[2] = biological target: T2, AIMP2 (aminoacyl-tRNA synthetase interacting multifunctional protein-2) (Homo sapiens, UniProt Q13155)
T2 sequence (Q13155 1-320): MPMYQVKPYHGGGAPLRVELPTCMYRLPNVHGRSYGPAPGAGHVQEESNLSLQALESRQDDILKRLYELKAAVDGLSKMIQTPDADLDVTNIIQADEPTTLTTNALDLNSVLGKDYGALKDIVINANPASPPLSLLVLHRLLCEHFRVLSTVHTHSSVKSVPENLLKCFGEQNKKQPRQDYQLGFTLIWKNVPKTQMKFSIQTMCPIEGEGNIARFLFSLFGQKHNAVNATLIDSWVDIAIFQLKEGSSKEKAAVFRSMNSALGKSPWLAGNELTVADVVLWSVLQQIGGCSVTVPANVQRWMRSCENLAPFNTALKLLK

α-synuclein [3] = biological target: T1, α-synuclein; remark: listed apart in the source

Q: For `C[C@]12CC[C@H]3[C@@H](CCC4=CC(=O)CC[C@@H]43)[C@@H]1CC[C@@H]2O` [Nandrolone], which inhibition at 50 µM (α-synuclein [1]) is on record?
A: Its inhibition at 50 µM is roughly 39.9%.

Q: Which results are given for `CC(C)COc1ccc2c(c1)CC[C@@H]1[C@@H]2CC[C@]2(C)[C@H](O)CC[C@@H]12` [SG13-136, (8R,9S,13S,14S,17R)-3-isobutoxy-13-methyl-7,8,9,11,12,13,14,15,16,17-decahydro-6H-cyclopenta[a]phenanthren-17-ol]?
A: inhibition at 50 µM [2]: 56.2%; inhibition at 50 µM (α-synuclein [3]): 36.7%
